From patent US11925618B2, “Pharmaceutical combination for the treatment of cancer” (Piramal Enterprises Limited, priority 2014, dated 2024)
Where two headings read alike, the source gives them in different places. One block for each compound: values may come before it.

Columns and labels:
Assay type in all cases: cell-based
[1] = system: Thioredoxin Reductase (TrxR); test: TrxR activity assay (DTNB reduction) in FaDu cell lysates; settings: FaDu cells, DTNB reduction with or without ATM
Method: • (i) Cell lines: The cell lines of FaDu for head and neck squamous cell carcinomas (HNSCC) obtained from ATCC (American Tissue type Culture Collection), USA. • (ii) DTNB: Dithio nitro benzoic acid • (iii) ATM: Aurothiomalate
TrxR assay was conducted in six-well plates with 1M cells per well. The cells were treated with various concentrations of auranofin or voruciclib and in combination of both. The TrxR activity was measured in cell lysates using DTNB (Dithio nitro benzoic acid). The DINS was reduced to TNB (Thio nito benzoic acid) with or without a specific TrxR inhibitor, Aurothiomalate (ATM). The TrxR activity was calculated based on the difference in slope obtained from linear kinetic of DTNB reduction with or without ATM treatment.
The effect of auranofin and voruciclib combination on TrxR activity assay in FaDu cells are depicted in FIG. 16. The data is represented as mean±SEM (N=2) of % TrxR activity (Y-axis) and various concentration (μM) of Auranofin or voruciclib or combination of both (X-axis); PC—Positive control, C—Vehicle control.

[2] = system: ROS production in FaDu cells; test: Cellular ROS detection assay using DCFDA; settings: single agent
Method: (§1) The media was removed from the flask containing cells and 2-3 mL of sterile 1×DPBS was added to the flask. The DPBS was then removed from the flask and 2 mL of trypsin was added to the flask. The flask was kept in the incubator for a few seconds. The cells were then checked whether dislodged and if dislodged, 2 mL of serum was added to the flask. To the flask was then added 5-6 mL of media and swirled. The media was collected from the flask and centrifuged at 600 rpm for 10 min.
The supernatant solution was decanted and the pellet was re-suspended in 10 mL of media. To a 1.7 mL MCT; 50 μL of tryphan blue, 40 μL of media and 10 μL of cell suspension were added. The solution was then vortexed and 10 μL of this solution was loaded on a hemocytometer. The cells were counted in hemocytometer chambers and further calculated to get a count of ≥25000 cells/well/200 μL. […]
The plate was read in Spectamax fluoroscence excitation maximum is 485 nm and the emission maximum is 535 nm. […]
The […] cells were treated with various concentrations (μM) of auranofin or voruciclib alone or in combination. […] The treated FaDu/MDAMB-431 cells were analyzed on a fluorescent plate reader vis-a-vis the cells of positive control which were treated with 50 μM tert-butyl hydrogen peroxide (TBHP). […]

FaDu cell lines = test: CGI (cell growth inhibition, propidium iodide) assay in FaDu cell lines
Method: as §1
(§2) The supernatant solution was decanted and the pellet was re-suspended in 10 mL of media. To a 1.7 mL MCT; 50 μL of tryphan blue, 40 μL of media and 10 μL of cell suspension were added. The solution was then vortexed and 10 μL of this solution was loaded on a hemocytometer. The cells were counted in hemocytometer chambers and further calculated to get a count of ≥3000 cells/well/200 μL.
(§3) The cell stock was prepared using respective media and FBS, and 200 μL of the cell stock was added to each well (except media control wells) of white delta treated 96 well plate using a multi-channel pipette. To the media control wells, 200 μL of media was added. The plates were then incubated at 37° C. for 12-16 h.
(§4) The drug (the therapeutic agent) i.e. the CDK inhibitor and the antioxidant enzyme inhibitor were separately diluted to 10 folds using DMSO. The media of the plates was changed before the addition of drug to the plates and these plates were then placed in the incubator. 1 μL of CDK inhibitor and antioxidant enzyme inhibitor was added simultaneously to the respective wells and placed on the plate shaker for 15-30 mins. The plates were then placed back in incubator for 72 h or the time of incubation as decided.
(§5) 200 μL of media from each well was gently aspirated and then added 100 μL of 1×DPBS at room temperature to each well. The working stock of PI (stock 1 mg/mL) was prepared using 140 μL of PI and 20 mL of 1×DPBS for one plate. Then 1×DPBS was removed from the wells and 200 μL of PI working stock was added to each well. These plates were kept in dark for 5-10 min at room temperature on a shaker, after which the plates were stored at −80° C. until reading of the plate.
(§6) The plate was read in Spectramax fluorescence excitation maximum is 535 nm and the emission maximum is 617 nm.
Cell lines: The cell lines of FaDu for head and neck squamous cell carcinomas (HNSCC) obtained from ATCC (American Tissue type Culture Collection), USA were used in this study.
The analysis of combination index (CI) and cell growth inhibition was carried out using CGI assay method. […]
The combination studies of CDK inhibitor with TrxR inhibitor, auranofin was carried out at 12, 24, 48 and 72 h and the time point for which optimum synergy was obtained was determined. […]

MDA-MB-231 cell lines = test: CGI (cell growth inhibition, propidium iodide) assay in MDA-MB-231 cell lines; settings: determined at 72 h
Method: as §1, §2, §3, §4, §5, §6
Cell lines: The cell lines of MDA-MB-231 for triple negative breast cancer (TNBC) obtained from ATCC (American Tissue type Culture Collection), USA were used in this study.
The analysis of combination index and cell growth inhibition was carried out using CGI assay method. […]
The combination studies of CDK inhibitor with each of the TrxR inhibitors, auranofin, ebselen and ATO was carried out at 12, 24, 48 and 72 h and the time point for which optimum synergy was obtained was determined. […]

Compound: CC(=O)OC[C@H]1O[C@@H]([S-])[C@H](OC(C)=O)[C@@H](OC(C)=O)[C@@H]1OC(C)=O.CCP(CC)CC.[Au+] [Auranofin]
effect on TrxR activity [1]: concentration dependent reduction | increase in ROS level as compared to untreated control [2]: ~100% | EC50 (FaDu cell lines; FaDu cell lines, determined at 48 h, read-out: EC50): 0.15 µM | EC50 (MDA-MB-231 cell lines): 0.15 µM

EC50 (MDA-MB-231 cell lines; Homo sapiens): 3.89 µM
Compound: O=c1c2ccccc2[se]n1-c1ccccc1 [Ebselen]
EC50 (FaDu cell lines; Homo sapiens, FaDu, 72 h): 4.02 µM

Compound: CN1CC[C@@H](c2c(O)cc(O)c3c(=O)cc(-c4ccc(C(F)(F)F)cc4Cl)oc23)[C@@H]1CO.Cl [Voruciclib, (+)-2-[2-Chloro-4-(trifluoromethyl)phenyl]-5,7-dihydroxy-8-[(2R,3S)-2-(hydroxymethyl)-1-methylpyrrolidin-3-yl]-4H-chromen-4-one hydrochloride]
effect on TrxR activity [1]: no effect | increase in ROS level as compared to untreated control [2]: ~80% | EC50 (FaDu cell lines; Homo sapiens, FaDu cell lines, determined at 48 h, read-out: EC50): 2.04 µM | EC50 (MDA-MB-231 cell lines; Homo sapiens): 2.3 µM

Compound: Arsenic trioxide [ATO]
EC50 (FaDu cell lines; FaDu cell lines, determined at 72 h, read-out: EC50): 4.87 µM | EC50 (MDA-MB-231 cell lines): 5.19 µM
